In this experiment the target is T1, interaction between VCAM-1 and VLA-4 (Homo sapiens, UniProt P05556+P13612).
T1 construct: supplied in their natural form as surface molecules on human U937 cells; host or cells: U937 cells carry endogenous VLA-4; The partner hVCAM-1(1-3)-IgG was made in house in transfected COS cells (ATCC CRL1651) and used as culture supernatant
T1 sequence (P13612 34-1032): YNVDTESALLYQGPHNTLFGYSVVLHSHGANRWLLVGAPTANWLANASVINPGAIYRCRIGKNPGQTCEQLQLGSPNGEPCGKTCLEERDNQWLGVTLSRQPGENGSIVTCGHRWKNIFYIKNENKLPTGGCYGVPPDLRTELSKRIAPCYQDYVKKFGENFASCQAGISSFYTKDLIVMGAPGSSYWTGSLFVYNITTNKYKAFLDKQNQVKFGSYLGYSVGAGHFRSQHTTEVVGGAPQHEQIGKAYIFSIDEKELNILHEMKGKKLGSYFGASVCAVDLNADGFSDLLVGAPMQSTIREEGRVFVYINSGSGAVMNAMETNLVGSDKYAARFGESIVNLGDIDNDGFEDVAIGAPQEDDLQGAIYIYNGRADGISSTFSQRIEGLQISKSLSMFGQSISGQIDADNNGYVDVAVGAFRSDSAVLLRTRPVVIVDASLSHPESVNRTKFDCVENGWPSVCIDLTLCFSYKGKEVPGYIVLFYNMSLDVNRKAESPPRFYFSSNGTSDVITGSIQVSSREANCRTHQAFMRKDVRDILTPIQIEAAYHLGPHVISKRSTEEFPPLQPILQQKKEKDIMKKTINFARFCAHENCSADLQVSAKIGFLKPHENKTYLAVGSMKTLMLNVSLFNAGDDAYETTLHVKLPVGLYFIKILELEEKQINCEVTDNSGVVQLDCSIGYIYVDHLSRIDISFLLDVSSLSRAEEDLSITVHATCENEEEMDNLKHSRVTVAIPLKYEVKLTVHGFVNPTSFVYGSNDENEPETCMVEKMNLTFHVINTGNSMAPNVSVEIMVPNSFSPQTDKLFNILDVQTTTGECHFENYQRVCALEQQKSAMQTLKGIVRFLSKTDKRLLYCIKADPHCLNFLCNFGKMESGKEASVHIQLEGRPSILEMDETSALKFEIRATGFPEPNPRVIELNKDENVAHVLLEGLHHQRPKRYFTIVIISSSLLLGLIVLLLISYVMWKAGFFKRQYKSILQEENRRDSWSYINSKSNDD
T1 sequence (P05556 21-798): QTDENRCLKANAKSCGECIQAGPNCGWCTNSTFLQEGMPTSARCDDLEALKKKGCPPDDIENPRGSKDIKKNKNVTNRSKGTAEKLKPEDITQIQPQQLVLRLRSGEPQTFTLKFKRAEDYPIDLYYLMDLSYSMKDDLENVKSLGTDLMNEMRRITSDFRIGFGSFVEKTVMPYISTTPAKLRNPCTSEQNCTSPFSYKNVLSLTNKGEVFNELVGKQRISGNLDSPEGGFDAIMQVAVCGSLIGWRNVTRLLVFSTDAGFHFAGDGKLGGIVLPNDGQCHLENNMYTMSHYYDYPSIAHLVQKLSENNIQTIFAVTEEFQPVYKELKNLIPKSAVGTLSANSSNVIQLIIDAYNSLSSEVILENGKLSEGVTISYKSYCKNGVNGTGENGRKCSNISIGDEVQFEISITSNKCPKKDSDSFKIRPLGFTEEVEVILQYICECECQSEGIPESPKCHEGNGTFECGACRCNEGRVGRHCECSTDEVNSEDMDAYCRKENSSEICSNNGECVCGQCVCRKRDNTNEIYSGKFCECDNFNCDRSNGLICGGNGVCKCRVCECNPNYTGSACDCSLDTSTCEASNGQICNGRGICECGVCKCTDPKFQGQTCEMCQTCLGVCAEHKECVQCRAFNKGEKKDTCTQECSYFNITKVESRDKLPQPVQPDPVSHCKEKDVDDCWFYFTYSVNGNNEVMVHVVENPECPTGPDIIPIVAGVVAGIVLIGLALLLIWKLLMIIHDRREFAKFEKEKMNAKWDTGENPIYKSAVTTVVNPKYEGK
Nature of the experiment: U937/VCAM-1 cell adhesion test (adhesion of U937 cells to hVCAM-1(1-3)-IgG). The experiment is classed as cell-based. The conditions noted are these: concentration leading to 50% inhibition of adhesion of human U937 cells (ATCC CRL 1593) to hVCAM-1(1-3)-IgG. The source says:
The test method used for the activity of the compounds of the formula I on the interaction between VCAM-1 and VLA-4 is the assay described below which is specific for this interaction. The cellular binding components, i.e., the VLA-4 integrins, are supplied in their natural form as surface molecules on human U937 cells (ATCC CRL 1593). which belong to the leucocytes group. The specific binding components used are genetically engineered recombinant soluble fusion proteins, consisting of the extracytoplasmatic domain of human VCAM-1 and the constant region of a human immunoglobulin of the subclass IgG1.
Assay for the Measurement of the Adhesion of U937 Cells (ATCC CRL 1593) to hVCAM-1(1-3)-IgG
1. Preparation of Human VCAM-1 (1-3)-IgG and Human CD4-IgG
A genetic construct for the expression of the extracellular domain of human VCAM-1, associated with the genetic sequence of the heavy chain of human immunoglobulin IgG1 (hinge, CH2 and CH3 regions), from Dr. Brian Seed, Massachusetts General Hospital. Boston, USA was employed (cf. Damle and Aruffo, Proc. Natl. Acad. Sci. USA 1991, 88, 6403-6407). The soluble fusion protein hVCAM-1(1-3)-IgG contained the three amino-terminal extracellular immunoglobulin-like domains of human VCAM-1 (Damle and Aruffo, Proc. Natl. Acad. Sci. USA 1991, 88, 6403-6407). CD4-IgG (Zettimeissl et al., DNA and Cell Biology 1990, 9, 347) served as a fusion protein for negative controls. The recombinant proteins were expressed as soluble proteins after DEAE/dextran-mediated DNA transfection in COS cells (ATCC CRL1651) according to standard procedures (Ausubel et al., Current Protocols in Molecular Biology, John Wiley & Sons, Inc., 1994).
2. Assay for the Measurement of the Adhesion of U937 Cells to hVCAM-1 (1-3)-IgG
2.1 96-well microtiter test plates (Nunc Maxisorb) were incubated at room temperature for 1 hour with 100 μl/well of a goat-anti-human IgG antibody solution (10 μg/ml in 50 mM tris, pH 9.5). After removal of the antibody solution, washing was carried out once with PBS.
2.2 150 μl/well of a blocking buffer (1% BSA in PBS) were incubated on the plates at room temperature for 0.5 hour. After removal of the blocking buffer, washing was carried out once with PBS.
2.3 100 μl per well of a cell culture supernatant of transfected COS cells were incubated on the plates at room temperature for 1.5 hours. The COS cells were transfected with a plasmid which codes for the three N-terminal immunoglobulin-like domains of VCAM-1, coupled to the Fc part of human IgG1 (hVCAM-1 (1-3)-IgG). The content of hVCAM-1 (1-3)-IgG was about 0.5-1 μg/ml. After removal of the culture supernatant, washing was carried out once with PBS.
2.4 The plates were incubated at room temperature for 20 minutes with 100 μl/well of Fc receptor blocking buffer (1 mg/ml of γ-globulin, 100 mM NaCl, 100 μM MgCl2, 100 μM MnCl2, 100 μM CaCl2, 1 mg/ml of BSA in 50 mM HEPES, pH 7.5). After removal of the Fc receptor blocking buffer, washing was carried out once with PBS.
2.5 20 μl of binding buffer (100 mM NaCl, 100 μM MgCl2, 100 μM MnCl2, 100 μM CaCl2, 1 mg/ml of BSA in 50 mM HEPES, pH 7.5) were initially introduced, and the substances to be tested were added in 10 μl of binding buffer and incubated for 20 minutes. The controls used were antibodies against VCAM-1 (BBT, No. BBA6) and against VLA-4 (immunotech, No. 0764).
2.6 U937 cells were incubated in Fc receptor blocking buffer for 20 minutes and then added by pipette in a concentration of 1×10^6/ml and in an amount of 100 μl per well ([…]).
2.7 The plates were slowly immersed at an angle of 45° in stop buffer (100 mM NaCl, 100 μM MgCl2, 100 μM MnCl2, 100 μM CaCl2 in 25 mM tris, pH 7.5) and shaken off. The process was repeated.
2.8 50 μl/well of a dye solution (16.7 μg/ml of Hoechst Dye 33258, 4% formaldehyde, 0.5% triton X-100 in PBS) were then incubated on the plates for 15 minutes. […]
In turn, `Cc1ccccc1NC(=O)Nc1ccc(CN2C(=O)N([C@@H](CC(C)C)C(=O)NC(CC(=O)O)c3ccccc3)C(=O)C2(C)C)cc1` (mixture of isomers) [Example 196, (RS)-3-((S)-2-(4,4-Dimethyl-3-(4-(3-(2-methylphenyl)ureido)benzyl)-2,5-dioxoimidazolidin-1-yl)-2-(2-methylpropyl)acetylamino)-3-phenylpropionic Acid] had an IC50 of 25 nM.
As for `Cc1ccccc1NC(=O)Nc1ccc(CN2C(=O)N(CC(=O)N(C)[C@@H](CC(=O)O)C(=O)O)C(=O)C2(C)C)cc1` [Example 28, (2-(4,4-Dimethyl-3-(4-(3-(2-methylphenyl)ureido)benzyl)-2,5-dioxoimidazolidin-1-yl)-acetyl)-N-methyl-L-aspartic Acid], the figure is 110 nM; as for `Cc1ccccc1NC(=O)Nc1ccc(CN2C(=O)N(CC(=O)N[C@@H](CC(=O)O)c3ccccc3)C(=O)C2(C)C)cc1` [Example 11, (S)-3-(2-(4,4-Dimethyl-3-(4-(3-(2-methylphenyl)ureido)benzyl)2,5-dioxoimidazolidin-1-yl)acetylamino)-3-phenylpropionic Acid], 10 nM.
As for `C[C@H](CC(=O)O)NC(=O)CN1C(=O)CN(Cc2ccc(NC(=O)Nc3ccccc3Cl)cc2)C1=O` [Example 30, (R)-3-(2-(3-(4-(3-(2-Chlorophenyl)ureido)benzyl)-2,5-dioxoimidazolidin-1-yl)-acetylamino)-3-methylpropionic Acid], the figure is 580 nM; as for `Cc1ccccc1NC(=O)Nc1ccc(CN2C(=O)N(CC(=O)N(C)[C@@H](CC(=O)O)C(=O)NC3C4CC5CC(C4)CC3C5)C(=O)C2(C)C)cc1` (stereo partly drawn) [Example 22, (2-(4,4-Dimethyl-3-(4-(3-(2-methylphenyl)ureido)benzyl)-2,5-dioxoimidazolidin-1-yl)-acetyl)-N-methyl-L-(2-adamantyl)aspartamide], 4 nM.
As for `Cc1ccccc1NC(=O)Nc1ccc(CN2C(=O)N(C(CC(C)C)C(=O)NC(CC(=O)O)c3ccc(F)cc3)C(=O)C2(C)c2ccccc2)cc1` (centres unmarked) [Example 192], the figure is 50 nM.
`Cc1ccccc1NC(=O)Nc1ccc(CN2C(=O)N(C(CC(C)C)C(=O)NC(CC(=O)O)c3c(F)cccc3F)C(=O)C2(C)c2ccccc2)cc1` (centres unmarked) [Example 205] showed an IC50 of 95 nM.
As for `Cc1ccccc1NC(=O)Nc1ccc(CN2C(=O)N(CC(=O)NC(C)(C)CC(=O)O)C(=O)C2(C)C)cc1` [Example 91, 3-(2-(4,4-Dimethyl-3-(4-(3-(2-methylphenyl)ureido)benzyl)-2,5-dioxoimidazolidin-1-yl)acetylamino)-3,3-dimethylpropionic Acid], the figure is 210 nM; as for `Cc1ccccc1NC(=O)Nc1ccc(CN2C(=O)N([C@@H](CC(C)C)C(=O)N[C@@H](CC(=O)O)c3ccc4c(c3)OCO4)C(=O)C2(C)C)cc1` [Example 7, (S)-3-((S)-2-(4,4-Dimethyl-3-(4-(3-(2-methylphenyl)ureido)benzyl)-2,5-dioxoimidazolidin-1-yl)-(2-methylpropyl)acetylamino)-3-(3,4-methylenedioxyphenyl)propionic Acid], 2.5 nM; as for `C[C@H](CC(=O)O)NC(=O)[C@H](CC1CC1)N1C(=O)N(Cc2ccc(NC(=O)Nc3ccccc3)cc2)C(C)(C)C1=O` [Example 92, (R)-3-((S)-2-(4,4-Dimethyl-3-(4-(3-phenylureido)benzyl)-2,5-dioxoimidazolidin-1-yl)-2-cyclopropylmethylacetylamino)-3-methylpropionic Acid], 40 nM.
As for `Cc1ccccc1NC(=O)Nc1ccc(CN2C(=O)N([C@@H](CC(C)C)C(=O)N[C@H](C)CC(=O)O)C(=O)C2(C)C)cc1` [Example 8, (R)-3-((S)-2-(4,4-Dimethyl-3-(4-(3-(2-methylphenyl)ureido)benzyl)-2,5-dioxoimidazolidin-1-yl)-2-(2-methylpropyl)acetylamino)-3-methylpropionic Acid], the figure is 3.8 nM.
As for `CC1(C)C(=O)N(CC(=O)N[C@@H](CC(=O)O)C(=O)NC2C3CC4CC(C3)CC2C4)C(=O)N1Cc1ccc(NC(=O)Nc2ccccc2)cc1` (stereo partly drawn) [Example 24, (2-(4,4-Dimethyl-3-(4-(3-phenylureido)benzyl)-2,5-dioxoimidazolidin-1-yl)-acetyl)-L-(2-adamantyl)aspartamide], the figure is 6 nM; as for `Cc1ccccc1NC(=O)Nc1ccc(CN2CC(=O)N(CC(=O)N[C@@H](CC(=O)O)c3ccccc3)C2=O)cc1` [Example 29, (S)3-(2-(3-(4-(3-(2-Methylphenyl)ureido)benzyl)-2,5-dioxoimidazolidin-1-yl)-acetylamino)-3-phenylpropionic Acid], 890 nM; as for `CC(C)C[C@@H](C(=O)N[C@@H](CC(=O)O)c1ccc2c(c1)OCO2)N1C(=O)N(Cc2ccc(NC(=O)Nc3ccccc3)cc2)C(C)(C)C1=O` [Example 5, (S)-3-((S)-2-(4,4-Dimethyl-3-(4-(3-phenylureido)benzyl)-2,5-dioxoimidazolidin-1-yl)-2-(2-methylpropyl)acetylamino)-3-(3,4-methylenedioxyphenyl)propionic Acid], 5 nM.
With `Cc1ccccc1NC(=O)Nc1ccc(CN2C(=O)N([C@@H](CC(C)C)C(=O)N[C@@H](CC(=O)O)c3cccc4ccccc34)C(=O)C2(C)C)cc1` [Example 186], the IC50 came to 2.9 nM.
As for `Cc1ccccc1NC(=O)Nc1ccc(CN2C(=O)N(C(CC(C)C)C(=O)NC(CC(=O)O)c3ccc(CC(C)C)cc3)C(=O)C2(C)c2ccccc2)cc1` (centres unmarked) [Example 194], the figure is 450 nM.
As for `Cc1ccccc1NC(=O)Nc1ccc(CN2C(=O)N([C@@H](C)C(=O)N[C@H](C)CC(=O)O)C(=O)C2(C)C)cc1` [Example 90, (R)-3-((S)-2-(4,4-Dimethyl-3-(4-(3-(2-methylphenyl)ureido)benzyl)-2,5-dioxoimidazolidin-1-yl)-2-methyl-acetylamino)-3-methylpropionic Acid], the figure is 82 nM; as for `Cc1ccccc1NC(=O)Nc1ccc(CN2C(=O)N([C@@H](CC(C)C)C(=O)N[C@@H](CC(=O)O)c3ccc4ccccc4c3)C(=O)C2(C)C)cc1` [Example 184], 4 nM; as for `CC(C)C[C@@H](C(=O)N[C@@H](CC(=O)O)C(=O)N[C@H](C(=O)O)c1ccccc1)N1C(=O)N(Cc2ccc(NC(=O)Nc3ccc(F)cc3)cc2)C(C)(C)C1=O` [Example 49], 13 nM.
As for `CN(C(=O)CN1C(=O)N(Cc2ccc(NC(=O)Nc3ccccc3)cc2)C(C)(C)C1=O)[C@@H](CC(=O)O)C(=O)NC1C2CC3CC(C2)CC1C3` (some centres unmarked) [Example 23], the figure is 16 nM.
In turn, `Cc1ccccc1NC(=O)Nc1ccc(CN2C(=O)N(C(CC(C)C)C(=O)NC(CC(=O)O)c3ccccc3F)C(=O)C2(C)c2ccccc2)cc1` (centres unmarked) [Example 214] came in with an IC50 of 17 nM.
As for `Cc1cccc(C)c1NC(=O)Nc1ccc(CN2C(=O)N(CC(=O)N[C@@H](CC(=O)O)c3ccccc3)C(=O)C2(C)C)cc1` [Example 42], the figure is 470 nM; as for `Cc1ccc(NC(=O)Nc2ccc(CN3C(=O)N(CC(=O)N[C@@H](CC(=O)O)c4ccccc4)C(=O)C3(C)C)cc2)c(C)c1` [Example 43], 740 nM.

These data come from US6521654B2, “Substituted imidazolidine derivatives, their preparation, their use and pharmaceutical preparations including them” (Aventis Pharma Deutschland GmbH, priority 1997, dated 2003).
